Assay results: PubChem BioAssay (NCI)
Several values for one entry are separate records, joined by “and”; a condition that tells them apart may be missing. Equal entries are not always repeated.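 Each compound was tested at five concentrations against cells in 96-well plates for 48 hours. GI50: concentration for 50% inhibition of growth. TGI: total growth inhibition.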

How the values were obtained:
Test in all cases: inhibition of tumour cell growth, NCI panel, 48 h
[1] = tested on: OVCAR-4 ovarian
[2] = tested on: OVCAR-8 ovarian
[3] = tested on: HOP-62 NSCLC
[4] = tested on: M14 melanoma
[5] = tested on: MOLT-4 leukemia
[6] = tested on: KM12 colon
[7] = tested on: BT-549 breast
[8] = tested on: HCT-116 colon
[9] = tested on: TK-10 renal
[10] = tested on: SN12C renal
[11] = tested on: EKVX NSCLC
[12] = tested on: MDA-N

SMILES | GI50 [1] | TGI [1] | TGI [2] | GI50 [3] | TGI [3] | TGI [4] | GI50 [5] | TGI [5] | GI50 [6] | TGI [6] | TGI [7] | TGI [8] | GI50 [9] | GI50 [10] | TGI [10] | TGI [11] | TGI [12] | TGI [9] | GI50 [8]
COc1ccc2nc3cccc([N+](=O)[O-])c3c(NCCCO)c2c1 | 0.0104 µM and 0.023 µM | 0.0312 µM and 0.0859 µM | 0.0132 µM | 0.00282 µM | 0.0157 µM and 0.0193 µM | 0.00227 µM | 0.00328 µM and 0.0181 µM | 0.036 µM and 0.0847 µM | 0.00183 µM | 0.0146 µM and 0.0141 µM | 0.0146 µM and 0.0929 µM | 1.01 µM | 0.00188 µM | 0.00174 µM | 0.0193 µM |  |  |  | 
c1ccc(CSC2(SCc3ccccc3)CCCCC2)cc1 |  | > 10 µM | > 10 µM |  | > 10 µM | > 10 µM |  | > 10 µM |  | > 10 µM |  | > 10 µM |  |  | > 10 µM | > 10 µM | > 10 µM | > 10 µM | 
CCN(CC)c1oc(N(CC)CC)c(C(=O)Nc2ccccn2)c(=O)c1C(C)=O |  |  | > 100 µM |  | > 100 µM | > 100 µM |  | > 100 µM |  | > 100 µM |  | > 100 µM |  |  | > 100 µM | > 100 µM |  | > 100 µM | 
COc1ccc2nc3cc(Cl)ccc3c(SCC(=O)Nc3ccccc3-c3ccccc3NC(=O)CSc3c4ccc(Cl)cc4nc4ccc(OC)cc34)c2c1 |  | > 100 µM | > 100 µM |  | > 100 µM | > 100 µM |  | > 100 µM |  | > 100 µM |  | > 100 µM |  |  | > 100 µM | > 100 µM |  | > 100 µM | 
CCOc1cc2c(c(OCC)c1O)CC[C@@H]1[C@@H]2CC[C@]2(C)[C@@H](O)CC[C@@H]12 |  | > 100 µM | > 100 µM |  | 40.5 µM | > 100 µM |  | > 100 µM |  | 72.5 µM |  | 18.1 µM |  | 4.84 µM | 21.9 µM | > 100 µM | 1.58 µM | > 100 µM | 0.801 µM
CCOC(=O)c1nc2ccc(C(F)(F)F)cc2nc1Oc1ccc(C(=O)OC)cc1 |  | > 100 µM | > 100 µM |  | 74.8 µM | > 100 µM |  | > 100 µM |  | > 100 µM | > 100 µM | > 100 µM |  |  |  | > 100 µM |  | > 100 µM | 
CCOc1ccc(NC(=O)C(=O)C(C(=O)c2ccc3ccccc3c2)C2OC(=O)c3ccccc32)cc1 (stereo unspecified) |  | 44.5 µM | > 100 µM |  | 39.4 µM | 42.2 µM |  | 43.7 µM |  | > 100 µM |  | 35.1 µM |  |  | 44 µM | > 100 µM |  | > 100 µM | 
Cc1cnc2[nH]c(-c3ccc4ccccc4c3)cc(=O)c2c1 |  | > 100 µM | > 100 µM |  | > 100 µM | > 100 µM |  | > 100 µM |  | > 100 µM | > 100 µM | 14.5 µM |  |  | > 100 µM |  |  | > 100 µM | 0.465 µM
O=c1cc(-c2cccnc2)[nH]c2cc3c(cc12)OCO3 |  | > 100 µM | > 95.3 µM |  | 58.8 µM | > 100 µM |  | > 100 µM |  | > 100 µM | > 100 µM | > 100 µM |  |  | > 100 µM |  | 5.71 µM | > 100 µM | 
Cc1ccc(Nc2nc3c(=O)n(C)c(=O)n(C)c3nc2Nc2ccc(C)cc2)cc1 |  | 23.9 µM | 26.8 µM |  | 40.9 µM |  |  | > 100 µM |  | 34.5 µM |  | 22.1 µM |  |  | 30.5 µM | 30 µM | 24.2 µM | 29.9 µM | 
CC1(C)N=C(C2CCCN2C(=O)OCc2ccccc2)OC1=O (stereo unspecified) |  |  | > 100 µM |  | > 100 µM | > 100 µM |  | > 100 µM |  | > 100 µM | > 100 µM | > 100 µM |  |  | > 100 µM |  | > 100 µM | > 100 µM | 
NC(=O)NC12CC3CC(CC(F)(C3)C1)C2 |  |  | > 100 µM |  | > 100 µM | > 100 µM |  | > 100 µM |  | > 100 µM |  | > 100 µM |  |  |  | > 100 µM |  | > 100 µM | 
N#Cc1c(-c2ccccc2)c(CN2CCCCC2)c(=O)n2c1[nH]c1ccccc12 |  | > 100 µM | > 100 µM |  | 91.5 µM | > 100 µM |  | 45.4 µM |  | > 100 µM | > 100 µM | > 100 µM |  |  | > 100 µM |  | > 100 µM | > 100 µM | 
CC(Oc1ccc(OCC2CCCCC2)cc1)C(=O)NCc1ccco1 (stereo unspecified) |  | > 100 µM | > 100 µM |  |  | 42.6 µM |  | > 100 µM |  | > 100 µM |  | 76.3 µM |  |  | > 100 µM |  |  | > 100 µM | 
O=C1CC(NCc2ccccc2)c2c(Cl)sc(Cl)c21 (stereo unspecified) |  | > 87.3 µM | 48.5 µM |  | > 88.1 µM | > 63.6 µM |  | 43.2 µM |  | > 93.2 µM | 69.8 µM | 33.1 µM |  |  | 58 µM | > 100 µM |  | > 68.7 µM | 
Cc1cc(S(=O)(=O)/N=C(\[N-]S(=O)(=O)c2cc(Cl)sc2Cl)[n+]2ccc(N(C)C)cc2)c(S)cc1Cl |  | > 100 µM | > 100 µM |  | > 100 µM | 95.8 µM |  | > 100 µM |  | > 100 µM |  | 55.5 µM |  |  |  | > 100 µM | > 100 µM | > 100 µM | 

SMILES | GI50 [1] | TGI [1] | TGI [2] | GI50 [3] | TGI [3] | TGI [4] | GI50 [5] | TGI [5] | GI50 [6] | TGI [6] | TGI [7] | TGI [8] | GI50 [9] | GI50 [10] | TGI [10] | TGI [11] | TGI [12] | TGI [9] | GI50 [8]
CCCCCCCCCCCCCCCCCCOCC(O)COP(=O)(O)OCC1OC(n2ccc(N)nc2=O)C(O)C1O (stereo unspecified) |  | > 100 µM | 24.3 µM |  | 48.9 µM |  |  | 20 µM |  | 41 µM |  | > 100 µM |  |  | > 100 µM | > 100 µM | > 100 µM | 51.1 µM | 
Nc1nc(-c2ccco2)cc(-c2ccc(CO)o2)n1 |  | > 100 µM | > 100 µM |  | > 100 µM | > 100 µM |  | > 100 µM |  | > 100 µM |  | > 100 µM |  |  | > 100 µM | > 100 µM |  | > 100 µM | 
COc1cccc(NC(=O)CC(=O)N2N=C(n3ccc4ccccc43)CC2c2ccccc2)c1 (stereo unspecified) |  | > 100 µM | > 100 µM |  | > 100 µM | > 100 µM |  | > 100 µM |  | > 100 µM |  | > 100 µM |  |  | > 100 µM | > 100 µM |  | > 100 µM | 
COC1=C(C)C(=O)c2c(cc3c(c2O)C(C)(CCC=C(C)C)C(C)O3)C1=O (stereo unspecified) |  | > 100 µM | > 100 µM |  | 34.1 µM | 55.7 µM |  | > 100 µM |  | > 100 µM |  | > 100 µM |  |  | > 61.8 µM | > 100 µM |  | > 100 µM | 
O=C(c1ccccc1)N1C(=S)N(c2ccccn2)C(=Nc2ccccc2)C1=Nc1ccccc1 |  | 32.5 µM | > 100 µM |  | > 84 µM | > 100 µM |  | > 54.8 µM |  | 19 µM |  | > 77.3 µM |  |  | > 100 µM | > 100 µM | > 50.7 µM | 88.2 µM | 
O=C1c2ccccc2N2Oc3ccccc3C12c1ccccc1 (stereo unspecified) |  | > 100 µM | > 100 µM |  | > 100 µM | > 100 µM |  | > 100 µM |  |  |  | > 100 µM |  |  | > 100 µM | > 100 µM |  |  | 
COc1cc2c(cc1OC)[C@@H](Nc1ccc(F)cc1)C1COC(=O)[C@@H]1C2c1cc(OC)c(O)c(OC)c1 (stereo partly specified) |  | > 85.8 µM | > 38.8 µM |  | 2.49 µM | 10.5 µM |  | 0.21 µM |  | > 64.5 µM |  | > 100 µM |  |  | 13.7 µM | > 100 µM |  | 63 µM | 
C#CC1(O)CCCCCCCCC2(CCCCCCCC1)OCCO2 |  | 19.5 µM | 34.4 µM |  | 44.5 µM | 33.9 µM |  |  |  | 34.6 µM |  | 30.4 µM |  |  | 31.5 µM | 32.6 µM | 35.9 µM | 37 µM | 
CCOC(=O)C(Cl)(NC(=O)OCc1ccccc1)C(F)(F)F (stereo unspecified) |  | > 100 µM | > 100 µM |  | > 100 µM | > 100 µM |  | > 100 µM |  | > 100 µM |  | > 100 µM |  |  | > 100 µM | > 100 µM | > 100 µM | > 100 µM | 
CCOc1ccc(N/C(=C(/C(Cl)=C(/Cl)NC(C)(C)C)[N+](=O)[O-])n2nnc3ccccc32)cc1 |  | > 100 µM | 32.3 µM |  | > 100 µM | > 100 µM |  | > 100 µM |  | 61.7 µM | 41.5 µM | 33.7 µM |  |  | > 100 µM | > 100 µM |  |  | 
CCc1ccccc1NC(=O)/C(N=O)=C(/C)O |  | > 100 µM | > 100 µM |  | > 100 µM | > 100 µM |  | > 100 µM |  | > 100 µM |  | > 100 µM |  |  | > 100 µM | > 100 µM |  | > 100 µM | 
COc1ccc(NC(=S)c2ccoc2C)cc1CC(=O)OC(C)C |  | > 100 µM | > 100 µM |  |  | 64.3 µM |  | 80.4 µM |  | > 100 µM |  | > 100 µM |  |  | > 100 µM | > 100 µM | > 100 µM | > 100 µM | 
ON=C(CC(O)(C(F)(F)Cl)C(F)(F)Cl)CC(O)(C(F)(F)Cl)C(F)(F)Cl |  | > 10 µM | > 10 µM |  | 9.78 µM |  |  | > 10 µM |  | > 10 µM |  | > 10 µM |  |  | > 10 µM | > 10 µM |  | > 10 µM | 
CCCCCCCCC/C=C1\CCC(CN(C)C)C1=O (stereo unspecified) |  |  | 3.11 µM |  | 4.32 µM | 3.57 µM |  | 8.49 µM |  | 3.84 µM |  | 3.67 µM |  |  | 4.34 µM | 4.81 µM |  | 4.53 µM | 
CN(C)Cc1cc(N=Nc2ccc(Cl)cc2)cc(CN(C)C)c1O |  |  | 12.7 µM |  | 14.6 µM | 37.6 µM |  | 10.7 µM |  | 20.7 µM | 23.8 µM | 17.5 µM |  |  | 23.8 µM |  | 29.2 µM | 21.3 µM | 
